Data published in US11819535B2, “Composition and methods for regulating extracellular matrix accumulation” (UNIVERSITY HEALTH NETWORK, priority 2018, dated 2023).
One block for each molecule: values may come before it.

Key:
[1] = test system: CD36; assay: CD36 gene (qRT-PCR) and surface (flow cytometry) expression in dPHFs; format: cell-based, human
Procedure: For human and murine skin samples, skin samples were macrodissected and snap frozen in liquid nitrogen and stored at −80° C. For in vitro experiments, cells were trypsinized and either snap frozen in liquid nitrogen or immediately underwent RNA extraction. All RNA was extracted using the RNeasy Mini Kit (Qiagen) according to manufacturer instructions. RNA quality was measured and quantified using either the NanoDrop 2000c Spectrophotometer (Thermo Scientific); we used either A260/280 for cell samples, or RIN for human and murine samples using a 2100 bioanalyzer (Aligent). cDNA was synthesized from normalized amounts of RNA using random hexamer primers and SuperScript III (Invitrogen) on a PTC-200 Peltier Thermal Cycler. Primers were obtained from peer-reviewed publications whenever possible. See Table S1 for references and amplicon size. […] PCR efficiency was measured using a standard curve through the dilution of a representative sample to determine the linear range of cDNA amounts for qRT-PCR reactions. qRT-PCR reactions were performed on 384-well plates (Applied Biosystems) using SYBR Green PCR Master Mix (Applied Biosystems). […] A 2^−ΔΔCT method was used for relative quantification and for graphical representation in figures. […]

[2] = test system: dermal primary human fibroblasts (dPHFs); assay: Western blot of fibronectin, collagen-1 and PAI-1 in dermal primary human fibroblasts; format: cell-based; details: for extracellular levels of fibronectin, collagen-1, and PAI-1 (ECM proteins): Etomoxir 10 uM, BAY-876 40 nM, FIG. 2A; for effect on intracellular levels of fibronectin and collagen-1 / effect on downregulation of extracellular fibronectin and collagen-1 by caffeic acid: caffeic acid (40 uM) treated dPHFs; for effect on downregulation of extracellular fibronectin and collagen-1 by caffeic acid: in a dose dependent manner
[3] = test system: SMAD3; assay: SMAD3 luciferase reporter in dPHFs; format: cell-based, human; details: for SMAD3 dependent transcription: in response to TGF-B1, caffeic acid 40 uM, WZB-117 10 uM, 2-DG 2 mM
Procedure: SMAD3 luciferase reporter was constructed as previously described^26. Oligos containing SMAD3 binding sites were designed with BamH1 and Sal1 digestion sites. Forward: 5′-[…]-3′, reverse: 5′-[…]-3′. SMAD oligoes were inserted into a p-delta-51 LUC II reporter. dPHFs were electroporated with construct using an Amaxa mouse neural stem cell nucleofactor kit (Lonza). 24 hours after electroporation, cells were treated as above (cell culture) for 24 hours and lysed to assess for luciferase and renilla activity. Relative luciferase activity was defined as the level of luciferase bioluminescence divided by renilla bioluminescence for each sample.

[4] = test system: dermal primary human fibroblasts (dPHFs); assay: qRT-PCR gene expression profiling in dPHFs; format: cell-based; details: caffeic acid 40 uM
Procedure: dPHFs obtained from ATCC (PCS-201-012) were cultured in DMEM with 5% FBS. Mesenchymal cells were isolated primarily from C3H or B6 mice. Animals were euthanized and intraperitoneal fat or skin was dissected and minced. Collagenase and hyaluronidase (Stem cell technologies) digestion was performed in a rotating oven at 37 C for 1 hour, passed through a 70 uM filter, and then plated in DMEM+10% FSB to expand the mesenchymal population. Cells were starved for 12 hours in MEM media prior to treatment with TGF-B1 (Sigma), caffeic acid (Sigma), dichloroacetic acid (Sigma), PDGF-BB (R&D Systems), and/or etomoxir (Tocris). All protein and mRNA profiling was performed at 24 hours post-treatment except for PDGF-BB, which was performed at 48 hours post-treatment.
For human and murine skin samples, skin samples were macrodissected and snap frozen in liquid nitrogen and stored at −80° C. For in vitro experiments, cells were trypsinized and either snap frozen in liquid nitrogen or immediately underwent RNA extraction. All RNA was extracted using the RNeasy Mini Kit (Qiagen) according to manufacturer instructions. RNA quality was measured and quantified using either the NanoDrop 2000c Spectrophotometer (Thermo Scientific); we used either A260/280 for cell samples, or RIN for human and murine samples using a 2100 bioanalyzer (Aligent). cDNA was synthesized from normalized amounts of RNA using random hexamer primers and SuperScript III (Invitrogen) on a PTC-200 Peltier Thermal Cycler. Primers were obtained from peer-reviewed publications whenever possible. See Table S1 for references and amplicon size. Primers were validated through BLASTing to ensure specificity, size confirmation by gel electrophoresis at first time use, and by melting curve assessment for all reactions. PCR efficiency was measured using a standard curve through the dilution of a representative sample to determine the linear range of cDNA amounts for qRT-PCR reactions. qRT-PCR reactions were performed on 384-well plates (Applied Biosystems) using SYBR Green PCR Master Mix (Applied Biosystems). The analysis was run on the 7900HT Fast Real-Time PCR System (Applied Biosystems). Reaction conditions for cDNA synthesis and qRT-PCR are found in supplementary data Table S2 and S3 respectively. A no template control was used to monitor contamination and false positive results from primer-dimers. Results of no template controls were confirmed to have higher CT-values and distinct melting curves compared to template reactions. 18S ribosomal RNA was used as an internal control. A 2^−ΔΔCT method was used for relative quantification and for graphical representation in figures. Statistical analysis was performed on biological replicates using Relative Expression Software Tool (REST)^24 set to default parameters.

[5] = test system: dermal primary human fibroblasts (dPHFs); assay: DQ-collagen-1 / lysotracker co-localization in dPHFs; format: cell-based; details: TGF-B1 3 ng/ml; caffeic acid 40 uM
[6] = test system: dermal primary human fibroblasts (dPHFs); assay: Lysosome quantification (LysoTracker) and TFEB expression in dPHFs; format: cell-based; details: TGF-B1 3 ng/ml; caffeic acid 40 uM
Procedure: dPHFs were treated as per above (cell culture) and exposed to LysoTracker (ThermoFisher) as per manufacturer's instructions on a 4 chamber cover glass system (ThermoFisher). Images were obtained using an Olympus Fluoview laser-scanning confocal microscope. Fluorescence intensity was quantitated per cell using the Object Identification module and Measurement function of Volocity software. Cell area was measured using ImageJ software.

[7] = test system: dermal primary human fibroblasts (dPHFs); assay: FAO and glycolysis functional assessment (Seahorse) in dPHFs; format: cell-based; details: TGF-B1 stimulated dPHFs
Procedure: FAO and Glycolysis Functional Assessment for dPHFs • Seahorse experiments were performed on an XFe96 analyzer (Aligent) based on manufacturer's instructions. dPHFs were prepared as per above (cell culture) on an XF96 culture plate. For glycolysis profiling, final concentration of glucose (1 mM or 10 mM), oligomycin (1 uM), and 2-DG (100 mM) was utilized. For FAO, palmitate sodium (Sigma) and BSA-fatty acid free (Sigma) were used to make palmitate-BSA (0.17 mM) as per manufacturer's instructions. Etomoxir (Tocris) 40 uM final concentration was used.

[8] = test system: radiation-induced skin fibrosis; assay: Murine radiation-induced skin fibrosis model; format: in vivo, mice
Text: All animal procedures were approved by Animal Care Committee at the University Health Network under AUP 3422. A murine skin fibrosis model was created by radiating the hindlimb of C3H/HeJ mice (Jackson Laboratory) or B6.12951-Cd36^tm1Mfe/J mice (Jackson Laboratory) using an XRAD 225Cx (Precision X-Ray) and a 2.5 cm collimator. Prior to irradiation, fluoroscopic imaging was used to confirm and standardize the irradiation site. 40 Gy for C3H mice or 30 Gy for B6 mice was divided equally on the dorsal and ventral side of the leg. Animals were randomized into groups for treatment by a researcher blinded to treatment assignment. For CD36^high cell treatment, 1×10^6 cells in 100 ul PBS were injected into the hindlimb subdermally at 3 sites weekly for 3 weeks starting at 4 weeks post-irradiation. For caffeic acid phenethyl ester treatment, 10 mg/kg was given by intraperitoneal injection by a researcher blinded to treatment. Caffeic acid phenethyl ester or vehicle control was given 3× per week for 10 weeks starting at 1 week post-irradiation. Leg contracture measurement was performed, as previously published^21, after first sedating mice with inhalation anesthesia and ensuring deep sedation through no pain reflex and no muscle tone. Then mice hips were fixed on a custom apparatus. 0.1N equivalent weight was then used to extend the fibrotic and contralateral normal leg and leg extension was measured using a standardized ruler by two assessors blinded to treatment groups. Percentage leg contracture was calculated as 1−leg extension of fibrotic leg/leg extension of contralateral normal leg. Leg contracture was measured biweekly and averaged for the week.
Formalin-fixed, paraffin-embedded 8 um sections treated with Masson's Trichrome Stain were whole slide scanned using Aperio ScanScope XT. Analysis was performed by a researched blinded to treatment. Using ImageJ, whole slide scanned images were loaded using the […] plugin, and then stacked to RGB. Colour deconvolution was used to separate the full-colour images into their red, green and blue components. A threshold of pixel intensity was optimized and set and standardized for all images. A ratio of blue (trichrome) to red (nuclear) pixel density was derived for each image, representing collagen to cell ratio.

[9] = TGF-B1 treated dPHFs, caffeic acid 40 uM
[10] = mice with skin fibrosis, CAPE IP 10 mg/Kg 3 times per week for 10 weeks

rescue of WZB-117 and 2-DG inhibition of SMAD3 dependent transcription ([3]; TGF-B1 + WZB-117 or 2-DG + etomoxir 10 uM): not rescued | effect on caffeic acid's reduction of SMAD3 dependent transcription ([3]; TGF-B1 + caffeic acid 40 uM + etomoxir 10 uM): inhibited
SMILES: CCOC(=O)[C@@]1(CCCCCCOc2ccc(Cl)cc2)CO1 [etomoxir]
CD36 surface expression ([1]; dPHFs, Etomoxir 10 uM for 24 hours): downregulated | effect on the downregulation of pro-fibrotic proteins by caffeic acid ([2]; TGF-B1 + caffeic acid 40 uM + etomoxir, dPHFs): inhibited | extracellular levels of fibronectin, collagen-1, and PAI-1 (ECM proteins) ([2]; dPHFs, WZB-117 10 uM): elevation

SMILES: Cl.N [NH4Cl]
effect on intracellular levels of fibronectin and collagen-1 [2]: no effect | effect on downregulation of extracellular fibronectin and collagen-1 by caffeic acid [2]: inhibit

SMAD3 dependent transcription [3]: inhibited
SMILES: O=CC[C@@H](O)[C@H](O)[C@H](O)CO [2-DG, 2-deoxy-d-glucose]
extracellular levels of fibronectin, collagen-1, and PAI-1 (ECM proteins) ([2]; dPHFs, WZB-117 10 uM): downregulation

SMAD3 dependent transcription [3]: reduced
SMILES: O=C(O)/C=C/c1ccc(O)c(O)c1 [caffeic acid]
PPAR genes expression ([4]; TGF-B1 (3 ng/ml) treated dPHFs): upregulated | glycolysis genes expression ([4]; TGF-B1 (3 ng/ml) treated dPHFs): downregulated | FN1 and COL1A1 expression ([4]; TGF-B1 stimulated fibroblasts): moderately decreased | expression of PAI ([4]; TGF-B1 stimulated fibroblasts): significantly downregulated | co-localization between DQ-collagen-1 and lysosomes [5]: significant increase | CD36 gene and surface expression ([1]; TGF-B1 stimulated dPHFs, caffeic acid 40 uM): restored | expression of TFEB and lysosomes in dPHFs [6]: increasing | extracellular fibronectin and collagen-1 [2, 9]: markedly downregulated | intracellular and extracellular PAI-1 [2, 9]: reduced | functional shift of metabolism (glycolysis vs FAO) [7]: functionally shifted metabolism from glycolysis to FAO

SMILES: O=C(/C=C/c1ccc(O)c(O)c1)OCCc1ccccc1 [CAPE, caffeic acid phenethyl ester]
fibronectin, collagen-1 and PAI-1 ([2]; TGF-B1 (3 ng/ml) treated dPHFs, CAPE 5 uM): downregulate | functional and histological evidence of fibrosis severity (leg contracture, trichrome) ([8]; CAPE IP 10 mg/Kg 3 times per week for 10 weeks): significantly reduced | PPAR signaling in skin [8, 10]: upregulated | expression of CD36 in skin [8, 10]: upregulated | CD36 expression in vimentin+ (mesenchymal) cells, co-immunofluorescence ([8]; mice with skin fibrosis, CAPE treatment): increase

SMILES: Cc1c(NC(=O)c2cc(C(N)=O)nc3cc(F)ccc23)c(C(F)(F)F)nn1Cc1ccc(C#N)cc1 [BAY-876]
extracellular levels of fibronectin, collagen-1, and PAI-1 (ECM proteins) ([2]; dPHFs, WZB-117 10 uM): downregulation

SMILES: CCN(CC)CCCC(C)Nc1ccnc2cc(Cl)ccc12 (stereo not shown) [chloroquine]
effect on intracellular levels of fibronectin and collagen-1 [2]: no effect | effect on downregulation of extracellular fibronectin and collagen-1 by caffeic acid [2]: inhibit

SMAD3 dependent transcription [3]: inhibited
SMILES: O=C(Oc1cccc(F)c1OC(=O)c1cccc(O)c1)c1cccc(O)c1 [WZB-117]
extracellular fibronectin, collagen-1 and PAI-1 protein levels ([2]; TGF-B1 3 ng/ml, WZB-117 10 uM, even in dPHFs lacking PPARG and ACOX1): reduced | extracellular levels of fibronectin, collagen-1, and PAI-1 (ECM proteins) ([2]; dPHFs, WZB-117 10 uM): downregulation
